These results are taken from patent US4585773A, “Isoindolinyl-alkyl-piperazines” (Bristol-Myers Company, priority 1984, dated 1986).

Each structure is given as a SMILES string. pIC50: −log10 of the molar value. Read-outs that look alike come from different tables or passages of the source.

One test addresses α2. Put plainly: in vitro α2 binding, [3H]Clonidine (Table IV). The conditions noted are these: for pIC50: [3H]Clonidine, brain tissue, 50 mM Hepes.KOH, pH 7.4, read-out: α2 Binding IC50. The protocol:
(§1) In this Example the compounds of Examples I-XI were tested in vitro for α1 and α2 binding. The compound of Example I was tested as its monochloride 2-propanolate hydrate, i.e. as C22 […] CLN4 O4 S .HCl.0.2(CH3)2 CHOH 0.15H2 O. In the testing specific brain tissues were prepared as sources of binding sites. Aliquots of the washed members are incubated with a low concentration of […]. After incubation at suitable temperature, the reaction mixture is treated to separate the membrane-bound radioligand Radioactivity is measured. Linear regression analysis of the probit value for the percent of binding occurring in the presence of varying concentrations of the compound of interest plotted against the concentration of the compound yields concentrations which inhibit 50% specific binding, the IC50. The assay buffer is 50 mM Hepes.KOH, pH 7.4. The ligand is [^3 H]WB-4101 from New England Nuclear for α1 and [^3 H]Clonidine from New England Nuclear for α2. The results are considered against phentolamine methanesulfonate (Reference) which is considered a good α-binder.

Test [1] concerns Spontaneously Hypertensive rat. The test can be described thus: antihypertensive activity, Spontaneously Hypertensive Rat (Table II). In kind it is in vivo. The protocol:
Spontaneously Hypertensive Rat Male rats weighing 300-400 g, previously conditioned to the procedure, are prewarmed in a heating chamber (30° C.) for 10-20 min. and subsequently restrained in a wire holder at that temperature. Systolic blood pressure and heart rate are measured by the tailcuff technique using a pneumatic pulse transducer and a biotachometer before, and 2, 4, and 24 hours after oral administration of vehicle (0.25% Methocel in water) or test compounds suspended in vehicle at a dose volume equivalent to 5 ml/kg. Blood pressure and heart rate data are reported as changes from zero-hour measurements with vehicle control groups run periodically to confirm that the vehicle has no effect. Testing was carried out on the compounds of Examples I-XII for antihypertensive activity. In the case of all the compounds testing was carried out on the Spontaneously Hypertensive rat as described hereinbefore. In the case of the compounds of Examples I-IV testing was also carried out on the DOCA-salt Hypertensive Rat. The compound of Example I was tested as its monochloride 2-propanolate hydrate, i.e. as C22 […] ClN4 O4 S.HCl.0.2(CH3)2 CHOH.0.15H2 O in Tests 1-5; and as the 3/4 mole hydrochloride, i.e. C22 […] ClN4 O4 S: 3/4 HCl in Tests 3a, 4a, 5a-5d. Test results are set forth in Table II below wherein SHR stands for Spontaneously Hypertensive rat, DOCA stands for DOCA-salt Hypertensive Rat, ΔBP stands for the change in systolic blood pressure in mm Hg, ΔHR stands for the change in mean heart rate in beats per minute and the times set forth are the times after dosing. A peak change in ΔBP of more than 20 is considered as indicating activity.

For a further test, the target named is α1. The test can be described thus: in vitro α1 binding, [3H]WB-4101 (Table IV). Conditions: [3H]WB-4101, brain tissue, 50 mM Hepes.KOH, pH 7.4; read-out: α1 Binding IC50. The protocol:
as §1

Test [2] is described as follows: conscious rat diuretic screen of Lipschitz (Table I). In kind it is in vivo, rat (female Sprague Dawley; male Okamoto-Aoki). Conditions: female Sprague Dawley rats; for response vs control in vivo at 3 mg/kg / response vs control in vivo at 30 mg/kg: Rattus norvegicus, po. The protocol:
With respect to diuretic utility there can be mentioned the conscious rat diuretic screen of Lipschitz, et al. (J. Pharmacol. Exp. Therap. 79, 97-110 (1943)). In this test, dose response assays of diuretic, natruiretic and kaliuretic activity are determined by oral administration of the test substance. The compounds synthesized in Examples I-XI were tested for diuretic […]. The compound of Example I was tested as its monohydrochloride 2-propanolate hydrate, i.e. as C22 […] ClN4 O4 S.HCl. 0.2(CH3)2 CHOH.0.15H2 O. Testing was carried out by the diuretic screen of Lipschitz, et al. described previously. In Table I below Volume Ratio is the ratio of total volume excreted for the test comuound compared to the total volume excreted for the control, Na^+ Ratio is the Na^+ excreted for the test compound compared to the Na^+ excreted for the control, K^+ Ratio is the K^+ excreted for the test compound compared to the K^+ excreted for the control. Female Sprague Dawley rats were used in Test Nos. 1, 2, 6, 7, 11-29. Male Okamoto-Aoki rats were used in Test Nos. 3-5 and 8-10 and testing for antihypertensive activity was carried out simultaneously on the Test Nos. 3-5 rats. In some instances, compounds were retested at the same dose level.

In test [3] the test system is α blocking activity (phenylephrine). The test can be described thus: in vivo α blocking activity, phenylephrine (PE) as α-agonist (Table III). Set-up: species or system rat; ED50: unit not given beside the values. The protocol:
In this example the compounds of Examples I (modified), II, III, V, VI, VII, VIII, IX and XI were tested in rats for in vivo α blocking activity according to methodology described at page 312 of Deitchman, et al., Journal of Pharmacological Methods, 3, 311-321 (1980). In this test phenylephrine (PE below) or norepinephrine (NE below) was administered as an α-agonist to the rats before and after dosing with the test drug and the average interpolated dose or PE/NE effecting a 50 mm Hg increase in mean arterial blood pressure was determined. Table III below records the results. In such Table, ED50 stands for such average interpolated dose and Average Dose Shift stands for the average ratio of ED50 after drug administration to ED50 before drug administration. The compound of Example I was tested as its monochloride 2-propanolate hydrate, i.e. as C22 H27 ClN4 O4 S.HCl 0.2(CH3)2 CHOH.0.15H2 O in Tests 1-5 and as the 3/4 mole hydrochloride, i.e. C22 H27 ClN 4 O4 S.3/4HCL in Tests 2a and 3a. The route was intravenous except in the case of the runs of Test Nos. 2a, 3, 3a, 26-29 the route was oral.

[4] abbreviates: 3 mg/kg oral, read-out: K+ Ratio.
Setting [5] is: 3 mg/kg oral, read-out: Na+ Ratio.
The mark [6] stands for this setting: 3 mg/kg oral, read-out: Volume Ratio.
Setting [7] is: 30 mg/kg oral, read-out: K+ Ratio.
The mark [8] stands for this setting: 30 mg/kg oral, read-out: Na+ Ratio.
[9] abbreviates: 30 mg/kg oral, read-out: Volume Ratio.
Where [10] appears, read: ED50 after/before drug, PE, dose 10, intravenous.

Broadly, the pIC50 is the negative decadic logarithm of the IC50, by convention in mol/L. For the compound `Cl.NS(=O)(=O)c1cc2c(cc1Cl)CN(CCCN1CCN(C(=O)c3ccccc3)CC1)C2=O.O` [Example VII, 1-[3-[5-(aminosulfonyl)-6-chloro-1,3-dihydro-3-oxo-2H-isoindol-2-yl]propyl]-4-benzoylpiperazine hydrochloride monohydrate], the pIC50 is less than 6.00 at α2 and 3.82 at α1. The “ΔBP 2 hours” value in test [1] (SHR, 30 mg/kg oral) is -7 ± 8 mm Hg. Also, the “ΔBP 4 hours” value in test [1] (SHR, 30 mg/kg oral) is reported as -14 ± 3 mm Hg. For the same compound, the “ΔHR 2 hours” value in test [1] (SHR, 30 mg/kg oral) is -32 ± 14 beats per minute. For the same compound, the “ΔHR 4 hours” value in test [1] (SHR, 30 mg/kg oral) was -74 ± 24 beats per minute. For the same compound, the “Urinary Na/K (Test Compound)” value is reported as 2.07 in test [2] (3 mg/kg oral) and 3.27 in test [2] (30 mg/kg oral). The response vs control in vivo at 3 mg/kg in test [2] (setting [4]) was 113%; in test [2] (setting [5]), 92%; in test [2] (setting [6]), 89%. Also, the figures for the response vs control in vivo at 30 mg/kg in test [2] (setting [7]), in test [2] (setting [8]) and in test [2] (setting [9]) were 111%, 140% and 112%, respectively. For the same compound, the “Average Dose Shift” value in test [3] (setting [10]) is given as greater than 1.0. The compound further showed an ED50 in test [3] (ED50 of PE after test drug, dose 10, intravenous) of 2.6.

Take `NS(=O)(=O)c1cc2c(cc1Cl)CN(CCCN1CCN(C(=O)c3ccc(F)cc3)CC1)C2=O` [Example VIII, 1-[3-[5-(Aminosulfonyl)-6-chloro-1,3-dihydro-3-oxo-2H-isoindol-2-yl]propyl]-4-(4-fluorobenzoyl)piperazine]: the results for the negative-log IC50 (pIC50) at α2 and on α1 were less than 6.00 and 3.84, respectively. For the same compound, the “ΔBP 2 hours” value in test [1] (SHR, 30 mg/kg oral) is -9 ± 5 mm Hg. Besides, in test [1] (SHR, 30 mg/kg oral), the “ΔBP 4 hours” value is recorded as -9 ± 4 mm Hg. Besides, the “ΔHR 2 hours” value in test [1] (SHR, 30 mg/kg oral) was 2 ± 15 beats per minute. Besides, the “ΔHR 4 hours” value in test [1] (SHR, 30 mg/kg oral) came to 24 ± 15 beats per minute. Moreover, the entries for the “Urinary Na/K (Test Compound)” value in test [2] (3 mg/kg oral) and in test [2] (30 mg/kg oral) were 2.60 and 3.69, respectively. Further, the response vs control in vivo at 3 mg/kg in test [2] (setting [4]) worked out at 94%; in test [2] (setting [5]) it was 98%; in test [2] (setting [6]) it was 89%. The results for the response vs control in vivo at 30 mg/kg in test [2] (setting [7]), in test [2] (setting [8]) and in test [2] (setting [9]) were 99%, 142% and 122%, respectively. Moreover, the “Average Dose Shift” value in test [3] (setting [10]) is recorded as 1 ± 0.1.

In the case of `Cl.NS(=O)(=O)c1cc2c(cc1Cl)CN(CCCN1CCN(c3ccccc3)CC1)C2=O.O` [Example X, 6-chloro-2,3-dihydro-3-oxo-2-[3-(4-phenyl-1-piperazinyl)propyl]-1H-isoindole-5-sulfonamide hydrochloride hydrate], in the test with α2, the “α2 binding activity (in words)” value is “α2 binding activity”. In addition, the pIC50 on α2 is 6.18; at α1, 7.80. The “peak change at 2 hours in ΔBP” value in test [1] (SHR, 30 mg/kg oral) is listed as -34 mm Hg. Also, in test [1] (conclusion from Table II (SHR, and DOCA for Examples I-IV)), the “antihypertensive effect (in words)” value is on record as “good antihypertensive effect without significantly affecting heart rate”. Also, the “Urinary Na/K (Test Compound)” value was 3.19 in test [2] (3 mg/kg oral) and 2.83 in test [2] (30 mg/kg oral). Moreover, the response vs control in vivo at 3 mg/kg in test [2] (setting [4]) amounted to 121%; in test [2] (setting [5]) it was 138%; in test [2] (setting [6]), 124%. Moreover, the response vs control in vivo at 30 mg/kg came to 157% in test [2] (setting [7]), 163% in test [2] (setting [8]) and 153% in test [2] (setting [9]). Further, in test [3] (conclusion from Table III), the “in vivo α blocking activity (in words)” value is reported as “active as in vivo α blockers”. Moreover, the “Average Dose Shift” value in test [3] (iv) is listed as 13 ± 2. Moreover, the ED50 in test [3] (iv) came to 45.0.
